Converted amounts (≈) assume the structure as drawn.
Tests used:
Assay type in all cases: cell-based, human
[1] = system: EOC cells; assay: Cell viability assay (CellTiter 96 AQueous One)
From the text: Cell lines and culture conditions. Established human EOC cell lines, A2780 and A2780/CP70 (gifts from Dr. T C Hamilton) (Behrens et al, 1997) were propagated in RPMI plus 10% fetal bovine serum (Gemini Bio-Products, Woodland, Calif.). Primary EOC cell lines were isolated from malignant ovarian ascites or explanted from ovarian tumors and cultured as previously described (Alvero et al, 2006). Purity of the EOC cells was 100% as determined by immuno-staining for cytokeratin 7 antigen. All cell lines were grown at 37° C. in a 5% CO2 atmosphere.
Cell viability assay. Cell viability was determined as previously reported (Alvero et al., 2006). Briefly, cells (5×10^3) were plated in triplicate wells in a […] volume per well of a 96-well microtiter plate (BD Biosciences/Pharmingen, San Diego, Calif.). The cells were grown to 70% confluence and then incubated in reduced-serum phenol-depleted Opti-MEM medium (Invitrogen-GIBCO, Carlsbad, Calif.) for 4 h prior to treatment. Compound 1 (Novogen, Inc., NSW, Australia) was added to the medium from 10 mg/ml stock to give various final concentrations as described in the results section. Following 24 h treatment, cell viability was evaluated using the CellTiter 96® AQueous One Solution Cell Proliferation Assay (Promega Corporation, Madison, Wis.) according to the manufacturer's instructions. Optical densities of the samples were measured at 490 nm using an automatic microplate reader (Model 550, Bio-Rad, Hurcules, Calif.). The values from the treated cells were compared with the values generated from the untreated control and reported as percent viability. Each experiment was done in triplicate.
For experiments using the caspase inhibitor, Z-VAD-FMK (Sigma Aldrich, St. Louis, Mo.), the inhibitor was added to the cultures 30 mins prior to treatment to yield a final concentration of 20 μM. […]

[2] = system: caspases-3/7, -8, and -9; assay: Caspase-3/7, -8, and -9 activity assay (Caspase-Glo) on cell lysates; conditions: EOC cells, 24 h; increasing concentrations of Compound 1 or 2 μM Paclitaxel
From the text: Protein preparation and cellular fractionation. After drug treatment, protein was extracted and measured as previously described (Alvero et al, 2006). For separation of the cytoplasmic and mitochondrial fractions, cell pellets were processed using the ApoAlert™ Cell Fractionation Kit (BD Biosciences, San Jose, Calif.) according to the manufacturer's instructions. For separation of the cytoplasmic and nuclear fractions, pellets were processed using NE-PER Nuclear and Cytoplasmic Extraction (Pierce Biotechnology, Inc., Rockford, Ill.). Caspase-3/7, -8, and -9 activity assay. Ten μg of protein in a 50 μl total volume was mixed with 50 μl of equilibrated Caspase-Glo^10 3/7, 8, or 9 reagents (Promega). After incubating at room temperature for 1 h, luminescence was measured using TD 20/20 Luminometer (Turner Designs, Sunnyvale, Calif.). Blank values were subtracted and fold-increase in activity was determined in relation to the control non-treatment.

[3] = system: EOC cells; assay: Mitochondrial depolarization using JC-1 (flow cytometry); conditions: 10 pg/ml (as printed, FIG. 5 legend)
From the text: Assay of mitochondrial depolarization using JC-1. After treatment, cells were trypsinized and stained with JC-1 dye using the Mitocapture™ mitochondrial apoptosis detection kit (BioVision Research Products, Mountain View, Calif.) according to manufacturer's instruction. Data was acquired using BD LSR II System and analyzed using BD FACSDiva Software™.

[4] = system: PANC-1 cells; assay: Apoptosis/necrosis by FACS (Annexin-V-FITC/PI), PANC-1; conditions: PANC-1, dose-escalating, 48 hr exposure
Description: (§1) Cells. Human pancreatic cell lines HPAC, MIAPaCa-2 and PANC-1 were obtained from the ATCC. (Manassas, Va.). The cells were maintained in DMEM media with Gln and high glucose (Mediatech, Manassas, Va.) with 10% fetal bovine serum (FBS, HyClone, Logan, Utah) and pencillin/streptomycin.
(§2) FACS Analysis. Apoptosis was measured by FACS analysis using Annexin-V-FITC and propidium iodide (PI) (Biovision, Mountain View, Calif.) as probes (Ahn et al., 2003). Mitochondrial membrane potential was measured by FACS analysis using JC-1 (Biovision) as a probe (Ahn et al., 2003). Cell cycle was analyzed on ethanol-fixed, RNaseA-treated cells staining with PI. In each spectrum, 10,000 gated events were recorded and analyzed with a FACSCalibur (BD Biosciences. San Jose, Calif.). All experiments were done in triplicate, error bars represent one standard deviation. Caspase inhibitor I (zVAD-fmk) was obtained from Calbiochem.

[5] = system: MIAPaCa-2 cells; assay: Mitochondrial membrane potential by FACS (JC-1), MIAPaCa-2; conditions: MIAPaCa-2, dose-dependent, 48 hrs of treatment
Description: as §1, §2

[6] = system: HPAC cells; assay: Cell cycle analysis by FACS (PI), HPAC; conditions: 10 μM, accompanied with an arrest in G0/G1, transient
Description: as §1, §2

SMILES	effect of autophagy inhibitor 3-MA on compound-induced cell death ([1]; Compound 1 10 μg/ml, 3 MA (10 μM))	GI50 ([1]; Homo sapiens, primary EOC cultures, paclitaxel-sensitive and paclitaxel-resistant (R182, R456), 24 h, read-out: GI50 (reduction in percentage of viable cells)) [µg/mL]	impact of pan-caspase inhibitor Z-VAD-FMK on compound-induced cell death ([1]; Z-VAD-FMK 20 μM, increasing concentrations of Compound 1, 24 h)	caspase-3/7, -8, and -9 activities [2]	cells having depolarized mitochondria ([3]; 1 h) [%]	cells having depolarized mitochondria ([3]; 4 h) [%]	apoptosis [4]	necrosis [4]	mitochondrial depolarization [5]	G2/M arrest [6]
COc1ccc(C2c3ccc(O)c(C)c3OCC2c2ccc(O)cc2)cc1 (stereo not shown) [Compound 1, 3-(4-hydroxyphenyl)-4-(4-methoxyphenyl)-8-methylchroman-7-ol]	not able to inhibit	5 to 10 (≈ 13.8 to 27.6 µM)	no impact	no changes	30	50	–	–	–	–
COc1ccc(C2c3ccc(O)cc3OCC2c2ccc(O)cc2)cc1 (stereo not shown) [Compound 10, 3-(4-hydroxyphenyl)-4-(4-methoxyphenyl)chroman-7-ol]	–	–	–	–	–	–	induced apoptosis in a dose-dependent fashion	Very little necrosis	depolarized	less pronounced
